Patent US20220177533A1, “Recombinant TGF a for wound healing purposes, and the process thereof” (SREE CHITRA TIRUNAL INSTITUTE FOR MEDICAL SCIENCES AND …, priority 2018, published 2022)

Tests used:
[1] = tested on: L929 cells; assay: MTT assay in L929 cells; type: cell-based; conditions: for cell viability: MTT, L929 cells
Method: Prior testing in said in vivo model, an in vitro testing for the metabolic activity has been performed through executing MTT assay in a specific cell line.
The MTT assay is carried out in L929 cells (ATCC, USA). […] 92.26%, 90.30% and 88.87% under these concentrations respectively. […] The results obtained are depicted in FIG. 3.

[2] = tested on: skin (intra-cutaneous reactions); parameters: species or system rabbits (New Zealand White); conditions: rabbit, in vivo
Description: (§1) The declaration for skin irritation test is hereby made as the recombinant TGFα induced a total mean score of ‘0.55’ in test material and ‘◯’ in solvent following intra-dermal injection.
(§2) For this study, 23 rabbits (New Zealand White) are taken and kept in a well-fed, healthy and aseptic condition to ensure the perfect outcome of the experimentation.

[3] = tested on: rabbit wounds; assay: Wound healing study in rabbits, 4×4 cm incision on the back; type: in vivo, rabbits (New Zealand White)
Description: as §2
Nine randomly selected rabbits (New Zealand White) are taken and a 4×4 cm incision was made right on the back of the animals. Following the application of Anesthetic Ketamine (Aneket, Neon Laboratories, India). This has been followed by application of recombinant TGFα to the “treated” group, and application of placebo, wherein except the growth factor, all the other conditions of “treated” group is followed.
It is found to initiate cell proliferation in rabbit wounds within 7 days. […] Thus, the recombinant growth factor TGF α found to be suitable for enhancing the healing of chronic wounds.

[4] = Antimicrobial / sterility test on test material
Description: On the safety side, recombinant TGF α passed the skin irritation test, sterility test and cytotoxicity tests, and found to be suitable for enhancing the healing of chronic wounds.
as §1

## recombinant TGF α: recombinant TGF α of 51 amino acids (Sequence ID No.: 1), carved out of 160 amino acid TGF α, expressed in a prokaryotic system
[1]
  cytotoxicity tests outcome: passed
[1]; 0.0025 μg/ml
  cell viability: 92.16%
[1]; 0.025 μg/ml
  cell viability: 92.26%
[1]; 0.25 μg/ml
  cell viability: 90.30%
[1]; 2.5 μg/ml
  cell viability: 88.87%
[2]
  intra-cutaneous reactions (erythema and edema): No intra-cutaneous reactions such as erythema and edema
  skin irritation test outcome: passed
  total mean score, skin irritation test: 0.55
[3]; rabbit models
  healing of chronic wounds: enhance the healing of chronic wounds
[3]; rabbit models, day 14
  wound finding on 14th day: tissue regeneration and formation of epithelial layer
[3]; rabbit, 4×4 cm incision
  time to initiation of cell proliferation in rabbit wounds: ≤ 7 days
[3]; treated vs control, FIGS. 4C and 4T
  vasculature and inflammatory response of the healing wound: higher number of vasculature and almost no inflammatory response
[4]
  antimicrobial test outcome: meeting the requirements for dermal applications
  sterility test outcome: passed
